# Results taken from a melting point compilation (Tetko et al.; mined from patent text by program, amines drawn as free bases though some values may be those of a salt).
row,Structure (SMILES),melting point [°C]
1,c1ccc(OC(Oc2cccc3ccccc23)Oc2cccc3ccccc23)cc1,88.5 to 90
2,CC(C)(C)c1ccccc1-n1c(=O)[nH]c2c(C(N)=O)nc(-c3cccc(O)c3)nc21,294 to 297
3,O=C(Cl)N1CCC(Oc2cc(Cl)cc(Cl)c2)C1 (configuration not stated),105 to 107
4,O=C1c2cccnc2N(N2CCOCC2)C2=NCCN12,225 to 226
5,O=C1Nc2ccccc2CO1,118 to 119
6,Cc1ccc(N2CCOCC2)c(N=C=S)c1,91 to 92
7,CC(C)(C)OC(=O)NCCNC(=O)c1cccc2c1c(C(=O)C(=O)NC1=CC(=O)OC1)cn2Cc1ccc(Cl)cc1,218 to 219
8,C=CC[C@@H]1C[C@@H](COc2ccc(-c3ccc(C#N)cc3)cc2)N(CCCC2CCCCC2)C1=O,157 to 159
9,CCCC1(C2CCCC2)Cc2cc(OCCCC(=O)O)c(Cl)c(Cl)c2C1=O (configuration not stated),140 to 141
10,COc1cc2nc(S(=O)(=O)Nc3c(OC)ccnc3Cl)nn2c(OC)n1,197 to 199
11,Cc1ccccc1C(=O)Nc1ccc(C(=O)N2CCCC(N(C)C(=O)c3ccccc3)c3ccccc32)cc1 (configuration not stated),248 to 249
12,O=C(CCl)Nc1ccc2c(c1NC(=O)c1ccco1)C(=O)c1ccccc1C2=O,211 to 212
13,CCC#COc1ccc(S(=O)(=O)NC(CSc2ccccn2)C(=O)NO)cc1 (configuration not stated),115 to 120
14,CCOC(=O)N1CCc2nc3cc(C)ccc3c(C)c2CC1,121
15,CCCc1nc2c(N)nc3cc(OCc4ccc(Cl)cc4)ccc3c2n1CC(C)C,215 to 217
16,O=C(O)c1ccc(Oc2ccccc2C(=O)O)cc1,220 to 223
17,CCCNC(=O)NS(=O)(=O)N1CCC(CCNC(=O)c2cc(Cl)ccc2OC)CC1,140 to 142
18,Nc1ccc(NC2CCCCCCC2)c([N+](=O)[O-])c1,161
19,CC1(O)CCC(=O)N(O)C1 (configuration not stated),98 to 100
20,CCNC(=O)N[C@H]1CC[C@H](CCN2CCN(c3cccc4c3CCC4)CC2)CC1,198 to 200
21,O=S(=O)(c1c(F)c(F)c(F)c(F)c1F)c1c(F)c(F)c(F)c(F)c1F,129
22,CCOC(=O)/C(=C/c1ccc(OC)c2c1CC(C)(C)O2)c1ccncc1,98 to 100
23,Cc1nc(-c2cc(C)c(OCCCc3cnc4ccccc4c3)c(C)c2)no1,105 to 107
24,O=C(Nc1cccc(S(=O)(=O)NCCO)c1)c1cnn2c(C(F)F)cc(-c3ccc(C(F)(F)F)cc3)nc12,231

row,Structure (SMILES),melting point [°C]
1,Nc1ccc2c(c1)C(=O)N(c1cccc(C(=O)O)c1)C2=O,306 to 308
2,NS(=O)(=O)c1ccc(NN=C2C(=O)Nc3ccc(C(=O)NCc4ccco4)cc32)cc1,> 250
3,CC(C)(C)NC(=O)c1ccc(I)cc1,149 to 150
4,COc1c(F)c(F)cc2c(=O)c(C(=O)O)cn(C3CC3)c12,185 to 186
5,COC(=O)c1cn(-c2ncccn2)cc1C,108
6,CCOC(=O)C(=CNc1cn[nH]c1)C(C)=O,126 to 128
7,CNc1ccc(Cl)nc1,70
8,Clc1nccnc1Sc1ccccc1,100 to 111
9,COc1ccc(-c2cc(=O)c3c(O)cc(OC)cc3o2)cc1,174 to 175
10,O=[N+]([O-])c1ccc(Cl)c2cc[nH]c12,166 to 167
11,CCOC(=O)N1CCc2nc3c(C(F)(F)F)cccc3c(C)c2CC1,136
12,Cc1c(C)c2c(c(C)c1O)CCC(C)(C(=O)N1CC(Oc3ccc(NC(=O)OC(C)(C)C)cc3)C1)O2 (configuration not stated),182 to 183
13,NS(=O)(=O)c1cccc(NC(=O)c2cnn3c(C(F)(F)F)cc(-c4ccc(C(F)(F)F)c(F)c4)nc23)c1,259
14,Nc1ccc2c(c1)CN(c1c(F)cc3c(=O)c(C(=O)O)cn(-c4ccc(F)cc4F)c3c1F)C2,> 300
15,CC(=Cc1cn(C)c2ccc3c(c12)CCCO3)[N+](=O)[O-],200 to 202
16,Cn1c(=O)oc2cc(C(=O)CCN3CCN(c4ccc(F)cc4)CC3)ccc21,149
17,Cc1noc(-c2ccc([C@H]3CN(C(=O)OC(C)(C)C)CCO3)cc2)n1,116
18,C=CCC(Cc1ccc(Cl)c(Cl)c1)NC(=O)c1cc(C)cc(C)c1 (configuration not stated),155 to 157
19,COc1ccccc1-c1cc(F)cc2c1NC(CN)CO2 (configuration not stated),84
20,Cc1ccc(C(=O)OC2CCCCC2=O)cc1 (configuration not stated),68 to 69
21,COc1ccc(-c2ccc3c(C#N)c(OC)ccc3c2)cc1,182 to 185
22,COc1c(C)c(=O)oc2cc(-c3nnc(C)s3)ccc12,177
23,CC(=O)c1cccc(-c2c(C)c(NC(=O)CC(C)(C)C)c(C)c3c2OCC3c2ccc(C(C)C)cc2)c1 (configuration not stated),209 to 210
24,O=C(NCC12CC3CC(CC(C3)C1)C2)c1ccccc1C(c1ccc(O)cc1)c1ccc(O)cc1,149 to 151

row,Structure (SMILES),melting point [°C]
1,COc1ccc(Sc2ccc(CC(=O)O)cc2)cc1,85 to 87
2,CCCCC1CCCC2=C1C(=O)c1ccccc1C2=O (configuration not stated),64 to 65
3,NS(=O)(=O)c1ccc(-n2nc(CF)cc2-c2ccccc2)cc1,162 to 163
4,Cc1ccc(-c2ncc(C)cn2)cc1,122 to 123
5,Ic1c[nH]c2ncccc12,201 to 204
6,CC(=O)NCC1CN(c2cc(F)c(N3CCC(n4ccnn4)C(F)C3)c(F)c2)C(=O)O1 (configuration not stated),176 to 178
7,CCOC(=O)c1cn([C@@H](CSc2cccc(Cl)c2Cl)[C@H](C)O)cn1,141 to 143
8,CN1CCN=C1CC(c1ccccc1)c1ccccc1,108 to 110
9,CC[C@@](O)(CC(=O)N1C(=O)O[C@@H](c2ccccc2)[C@H]1c1ccccc1)c1ccnc(OC)c1COCc1ccccc1,61
10,N#Cc1ccc(C2CC(=O)N(Cc3ccccc3)Cc3cncn32)cc1 (configuration not stated),65
11,O=C1CN(Cc2ccccc2)C(=O)[C@@H](Cc2c[nH]c3ccccc23)N1,207 to 208
12,O=C1CCC2(CCOC2=O)C(=O)C1 (configuration not stated),145 to 148
13,NS(=O)(=O)c1cc2c(Cl)c(O)ccc2s1,198 to 201
14,COc1cc2onc(C3CCN(CCCn4c(=O)[nH]c5ccccc54)CC3)c2cc1OC,147 to 149
15,CCOc1ccc2[nH]cc(C(=O)NCc3ccccn3)c(=O)c2c1,222 to 224
16,CSC1=C(Sc2ccc(C)cc2)CC2C3CCC4=CC(=O)C=CC4(C)C3(F)C(O)CC12C (configuration not stated),205 to 206
17,Cn1c(=O)c(C(=O)O)c(-c2ccccc2Cl)c2cc(Cl)ccc21,197 to 198
18,O=C(NC1CCCC1)N1CCc2[nH]cnc2C1,225
19,CCCCCC[C@@H]1C(=O)O[C@H]1OC(=O)N(CCCCC)c1ccccc1Oc1ccccc1 (relative stereo),63.1 to 66.3
20,O=C1N(C2CCCCC2)CC(CO)C1(c1ccccc1)c1ccccc1 (configuration not stated),148 to 150
21,COc1ccc(C2(c3ccc(N(C)C)cc3)OC(=O)c3ccc(N(C)C)cc32)cc1 (configuration not stated),156 to 161
22,COC(=O)C1=C(O)CCc2ccc(OC)cc21,48 to 48.5
23,COc1ccc(Cn2c(=O)n([C@H]3CC[C@H](O)CC3)c3ncc(C(F)(F)F)cc32)cc1OC,128 to 130
24,CCCCCCCN(CCC(C)(C)CCSc1nc(-c2ccccc2)c(-c2ccccc2)[nH]1)C(=O)Nc1ccc(F)cc1F,138 to 139
